We go through 13 molecules from patent US7498353B2, “Heterocyclic anti-viral compounds comprising metabolizable moieties and their uses” (priority 2005, dated 2009).

The test system of data set [1] is HCV replicon in 5-2 Luc replicon-comprising cells. Description: HCV replicon assay, luciferase readout (HEPC_REPLICON-LUC). The settings on record: Hepatitis C virus, read-out: HEPC_REPLICON-LUC Result Value (IC50). In kind it is cell-based. An excerpt: In one embodiment, the inhibitory activity of the metabolically active agent of the prodrug can be confirmed in a replicon assay that assesses the ability of a test compound to block or inhibit HCV replication in replicon cells. One example of a suitable replicon assay is the liver cell-line Huh 7-based replicon assay described in Lohmann et al., 1999, Science 285:110-113. A specific example of this replicon assay which utilizes luciferase translation is provided in the Examples Section. In one embodiment of this assay, the amount of test prodrug that yields a 50% reduction in translation as compared to a control cell (IC50) may be determined.
The inhibitory activity of certain prodrugs of the invention, which may inhibit HCV translation or replication prior to metablism and/or are metabolized into active agents, was confirmed using an HCV replicon assay. The HCV replicon can include such features as the HCV 5′ untranslated region including the HCV IRES, the HCV 3′ untranslated region, selected HCV genes encoding HCV polypeptides, selectable markers, and a reporter gene such as luciferase, GFP, etc. In the assay, actively dividing 5-2 Luc replicon-comprising cells (obtained from Ralf Bartenschlager; see Lohmann et al., 1999, Science 285:110-113) were seeded at a density of between about 5,000 and 7,500 cells/well onto 96 well plates (about 90 μl of cells per well) and incubated at 37° C. and 5% CO2 for 24 hours. Then, the test prodrug (in a volume of about 10 μl) was added to the wells at various concentrations and the cells were incubated for an additional 24-48 hours before luciferase assay. The media was aspirated from each well and Bright-Glo (Promega, Madison, Wis.) luciferase assay reagents were added to each well according to the manufacturer's instructions. Briefly, the Bright-Glo reagent was diluted 1:1 with PBS and 100 μl of diluted reagent was added to each well. After 5 min of incubation at room temperature, luciferin emission was quantified with a luminometer. In this assay, the amount of test prodrug that yielded a 50% reduction in luciferase emission (IC50) was determined. This IC50 value may represent the antiviral activity of the prodrug itself, the activity of prodrug transformed into its active metabolized form, or a combination of the two.
Background: A replicon is a self-replicating genome or part of one, used to study replication in cells.

The subject of data set [2] is HCV NS5A protein in 9-13 replicon cells. Description: Quantitative Western blot replicon assay (HEPC_REPLICON-ICWESTERN). The data set is classed as cell-based, Hepatitis C virus (HCV). The settings on record: Hepatitis C virus, read-out: HEPC_REPLICON-ICWESTERN Result Value (IC50). The procedure:
Alternatively, the inhibitory activity of the metabolically active agents of the prodrugs can be confirmed using a quantitative Western immunoblot assay utilizing antibodies specific for HCV non-structural proteins, such as NS3, NS4A NS5A and NS5B. In one embodiment of this assay, replicon cells are treated with varying concentrations of test prodrug to determine the concentration of the metabolically active agent of the test prodrug that yields a 50% reduction in the amount of a non-structural protein produced as compared to a control sample (IC50). A single non-structural protein may be quantified or multiple non-structural proteins may be quantified. Antibodies suitable for carrying out such immunoblot assays are available commercially (e.g., from BIODESIGN International, Saco, Me.).
Certain prodrugs of the invention, which may inhibit HCV translation or replication prior to metablism and/or are metabolized into active agents, were also tested for their ability to inhibit HCV replication using a quantitative Western blot analysis with antibodies specific for the HCV NS5A or other non-structural proteins. Actively dividing 9-13 replicon cells were seeded into 6-well plates at a density of 1×10^5 cells/well in a volume of 2 ml/well and incubated at 37° C. and 5% CO2 for 24 hours. Various concentrations of test prodrugs (in a volume of 10 ul) were added to the wells and the cells incubated for another 48 hours. Protein samples were prepared from the cultured cells, resolved on a SDS-PAGE gel and transferred to a nitrocellulose membrane. The membrane was blocked with 5% non-fat milk in PBS for 1 hour at room temperature. Primary antibody (anti NS5A antibody; BIODESIGN International, Saco, Me.) incubation was performed for 1 hour at room temperature, after which the membrane was washed 3 times (for 15 min per time) with PBST (PBS plus 0.1% Tween 20). Horseradish peroxidase conjugated secondary antibody incubation was performed for 1 hour at room temperature and the membrane was washed 3 times (for 15 min per time) with PBST. The membrane was then soaked in substrate solution (Pierce) and exposed to a film or quantified using an imager. In this assay, the amount of test prodrug that is believed to be transformed into an active agent under the given conditions that yielded a 50% reduction in the amount of NS5A protein translated as compared to a control sample (IC50) was determined.
For orientation: Immunoblotting shows a protein as a band on a membrane.

The nature of data set [3]: Pharmacokinetic studies in portal/jugular vein cannulated rats after oral administration. The data set is classed as in vivo, male Spraque-Dawley rats. The settings on record: for AUC: male, Sprague-Dawley, rat, 5 mg/kg oral dose of prodrug. How it is done: Pharamcokinetic studies were conducted in rats containing surgically implanted cannula in the portal and jugular veins. Blood samples were taken simultaneously from both cannula at various times after oral administration of the compounds. In the portal vein, the prodrugs are detected and, in some cases, the active compound, A-B—C—NHCOCHX2, has also been detected. The presence of active compound in the portal vein samples has been attributed to metabolism of the prodrug in transit through the gut wall. […] In the jugular samples, many, but not all, of the prodrugs have been detected in systemic circulation, depending on the hepatic extraction ratio of the prodrug.
Compounds were dissolved in a mixture of TPGS:PEG:PG (35%:60%:5%) and diluted with saline for oral administration. Typically, 6.5 mg of compound was dissolved in 1 ml of the organic mixture and added to 5.5 ml of saline. Animals were dosed with 5 ml/kg of this mixture to give a typical dose of 5 mg/kg. All animal studies were conducted in male Spraque-Dawley rats and the animals were fasted overnight prior to dose administration. Surgeries (to implant blood sampling cannula) were conducted at least two days prior to the study. Blood samples (100 μl) were collected using sodium heparin as anticoagulant and added to 300 μl of a mixture of acetate buffer (100 mM, pH=6.5):acetonitrile:ethanol:DMSO (2:1:1:2 v/v). Samples were centrifuged and the supernatant was analyzed by LC/MS/MS using the procedures outlined above. Standards were prepared similarly using fresh rat blood from naive animals.
No. 66 and Cpd. No. 64 (Table 3). […] Because the portal blood flows directly to the liver, the intact active parent compound may exert an anti-viral effect in the liver.

[4] abbreviates: 5-2 Luc replicon cells, 50% reduction in luciferase emission.
Setting [5] is: 9-13 replicon cells, 50% reduction in NS5A protein.

Read-outs that look alike come from different tables or passages of the source. A value given as a limit tells only on which side of the number the result lay.

A word on the IC50: it is the concentration at which inhibition is half-maximal. In general, AUC refers to concentration integrated over time. `CCOP(=O)(CCN(C(=O)C(Cl)Cl)c1cccc(-c2cc(-c3c(Cl)cccc3Cl)no2)c1)OCC` [Cpd. No. 1, Diethyl 2-(2,2-Dichloro-N-(3-(3-(2,6-dichlorophenyl)isoxazol-5-yl)phenyl)acetamido)ethylphosphonate]: the results for the half-maximal inhibitory concentration (IC50) in data set [1] and in data set [2] were over 20 µM and 1 to 20 µM, respectively. Further, in data set [3] (in vivo), the AUC amounted to 176 ng·h/mL.

As to `COCN(C(=O)C(Cl)Cl)c1cccc(-c2cc(-c3c(Cl)cccc3Cl)no2)c1` [Cpd. No. 6, 2,2-Dichloro-N-(3-(3-(2,6-dichlorophenyl)isoxazol-5-yl)phenyl)-N-(methoxymethyl)acetamide], the IC50 in data set [1] (setting [4]) and in data set [2] (setting [5]) was under 1 µM in each case. Also, the area under the curve (AUC) in data set [3] (portal vein blood) was determined as 98.3 ng·h/mL.

On to `N[C@H](C(=O)NCCN(C(=O)C(Cl)Cl)c1cccc(-c2cc(-c3c(Cl)cccc3Cl)no2)c1)c1ccccc1` [Cpd. No. 18, (S)-N-(2-(2-Amino-2-phenylacetamido)ethyl)-2,2-dichloro-N-(3-(3-(2,6-dichlorophenyl)isoxazol-5-yl)phenyl)acetamide], for which the IC50 in data set [2] (setting [5]) was over 20 µM. Also, in data set [3] (portal vein blood), the AUC was 627 ng·h/mL.

For the molecule `CC(C)C(NC(=O)CN)C(=O)CCN(C(=O)C(Cl)Cl)c1ccnc(-c2cc(-c3c(Cl)cccc3Cl)no2)c1` (stereo not shown) [Cpd. No. 50, N-(4-(2-Aminoacetamido)-5-methyl-3-oxohexyl)-2,2-dichloro-N-(2-(3-(2,6-dichlorophenyl)isoxazol-5-yl)pyridin-4-yl)acetamide], the IC50 in data set [1] (setting [4]) and in data set [2] (setting [5]) was under 1 µM throughout.

With `CCC(C)C(NC(=O)OC(C)(C)C)C(=O)NC(C(=O)CCN(C(=O)C(Cl)Cl)c1ccnc(-c2cc(-c3c(Cl)cccc3Cl)no2)c1)C(C)C` (stereo not shown) [Cpd. No. 51, tert-Butyl 1-(6-(2,2-Dichloro-N-(2-(3-(2,6-dichlorophenyl)isoxazol-5-yl)pyridin-4-yl)acetamido)-2-methyl-4-oxohexan-3-ylamino)-3-methyl-1-oxopentan-2-ylcarbamate], the IC50 in data set [1] (setting [4]) and in data set [2] (setting [5]) was under 1 µM in each case.

As for `CCC(C)C(N)C(=O)NC(C(=O)CCN(C(=O)C(Cl)Cl)c1ccnc(-c2cc(-c3c(Cl)cccc3Cl)no2)c1)C(C)C` (stereo not shown) [Cpd. No. 52, 2-Amino-N-(6-(2,2-dichloro-N-(2-(3-(2,6-dichlorophenyl)isoxazol-5-yl)pyridin-4-yl)acetamido)-2-methyl-4-oxohexan-3-yl)-3-methylpentanamide], the IC50 in data set [1] (setting [4]) and in data set [2] (setting [5]) was under 1 µM throughout.

In the case of `CC(C)C(NC(=O)C1CC(O)CN1C(=O)OC(C)(C)C)C(=O)CCN(C(=O)C(Cl)Cl)c1ccnc(-c2cc(-c3c(Cl)cccc3Cl)no2)c1` (stereo not shown) [Cpd. No. 53, tert-Butyl 2-(6-(2,2-Dichloro-N-(2-(3-(2,6-dichlorophenyl)isoxazol-5-yl)pyridin-4-yl)acetamido)-2-methyl-4-oxohexan-3-ylcarbamoyl)-4-hydroxypyrrolidine-1-carboxylate], the 50% inhibitory concentration (IC50) in data set [1] (setting [4]) and in data set [2] (setting [5]) was under 1 µM each time.

With `CC(C)C(NC(=O)C(CCC(=O)OC(C)(C)C)NC(=O)OC(C)(C)C)C(=O)CCN(C(=O)C(Cl)Cl)c1ccnc(-c2cc(-c3c(Cl)cccc3Cl)no2)c1` (stereo not shown) [Cpd. No. 55, tert-Butyl 4-(tert-Butoxycarbonylamino)-5-(6-(2,2-dichloro-N-(2-(3-(2,6-dichlorophenyl)isoxazol-5-yl)pyridin-4-yl)acetamido)-2-methyl-4-oxohexan-3-ylamino)-5-oxopentanoate], the values for the 50% inhibitory concentration (IC50) in data set [1] (setting [4]) and in data set [2] (setting [5]) were under 1 µM and 1 to 20 µM, respectively.

For `CC(C)OC(=O)OCN(C(=O)C(Cl)Cl)c1ccnc(-c2cc(-c3c(Cl)cccc3Cl)no2)c1` [Cpd. No. 57, (2,2-Dichloro-N-(2-(3-(2,6-dichlorophenyl)isoxazol-5-yl)pyridin-4-yl)acetamido)methyl Isopropyl Carbonate], the IC50 in data set [1] (setting [4]) and in data set [2] (setting [5]) was 1 to 20 µM in each case.

For the molecule `CC(C)[C@@H](NC(=O)OCN(C(=O)C(Cl)Cl)c1ccnc(-c2cc(-c3c(Cl)cccc3Cl)no2)c1)C(=O)OC(C)(C)C` [Cpd. No. 58, (R)-tert-Butyl 2-(((2,2-Dichloro-N-(2-(3-(2,6-dichlorophenyl)isoxazol-5-yl)pyridin-4-yl)acetamido)methoxy)carbonylamino)-3-methylbutanoate], the IC50 in data set [1] (setting [4]) was over 20 µM; in data set [2] (setting [5]), 1 to 20 µM.

As to `CCC(C)C(N)C(=O)CCN(C(=O)C(Cl)Cl)c1ccnc(-c2cc(-c3c(Cl)cccc3Cl)no2)c1` (stereo not shown) [Cpd. No. 59, N-(4-Amino-5-methyl-3-oxoheptyl)-2,2-dichloro-N-(2-(3-(2,6-dichlorophenyl)isoxazol-5-yl)pyridin-4-yl)acetamide], the IC50 in data set [1] (setting [4]) and in data set [2] (setting [5]) was under 1 µM in each case.

In the case of `NCC(=O)CCN(C(=O)C(Cl)Cl)c1ccnc(-c2cc(-c3c(Cl)cccc3Cl)no2)c1` [Cpd. No. 60, N-(4-Amino-3-oxobutyl)-2,2-dichloro-N-(2-(3-(2,6-dichlorophenyl)isoxazol-5-yl)pyridin-4-yl)acetamide], the IC50 in data set [1] (setting [4]) is under 1 µM; in data set [2] (setting [5]) it was 1 to 20 µM.

For the molecule `O=C(Nc1ccnc(-c2cc(-c3c(Cl)cccc3Cl)no2)c1)C(Cl)Cl` [Cpd. No. 64], in data set [3] (oral, portal vein), the “Active parent compound concentrations versus dose” value is listed as “increase in a linear fashion with dose”. In data set [3] (oral, portal vein plasma), the “Absorption and hydrolysis of the orally administered parent compound” value was “well absorbed but is extensively hydrolyzed to the inactive metabolite”.
